Earlier results on 1 compound are cited in US9789071B2 (G2B Pharma Inc., priority 2012, dated 2017).

SMILES strings stand for the structures.

For data set [1] the following is noted: IM injection.
The conditions of data set [2]: sublingual doses 5 to 40 mg, as the bitartrate salt.
The conditions of data set [3]: dogs.
The conditions of data set [4]: oral route.
For data set [5] the following is noted: dogs. This is another data set of the same source.
The conditions of data set [6]: normal human subjects, IM epinephrine injection.
Setting [7] is: nasal mucosa, needleless high-pressure injection.

On to `CNC[C@H](O)c1ccc(O)c(O)c1` [epinephrine], for which the “onset of action (Tmax)” value in data set [1] is 3 to 8 min. The plasma concentrations entry in data set [2] is listed as “equivalent to IM injection”. For the same compound, the “greatest epinephrine plasma concentrations” value in data set [3] (CPR, 7.5 mg/kg/nostril epinephrine after 0.25 mg/kg/nostril intranasal phentolamine, 1% taurodeoxycholic acid) was ~1,400 ng/mL. The absolute bioavailability result in data set [3] (intranasal, with 1% taurodeoxycholic acid) is “quite low”. Moreover, the bioavailability entry in data set [4] is on record as “negligible”. In addition, in data set [5], the “time peak systolic pressure was maintained” value is on record as “about 180 seconds”. Besides, in data set [5] (at 60 seconds), the peak systolic pressure is 200 % of baseline. For the same compound, in data set [5] (setting [7]), the “peak epinephrine levels in the blood” value was ~20 ng/mL and the “time of peak (Tmax) epinephrine levels in the blood” value is 0.25 min. In data set [6], the Tmax (as a rule, the time at which the peak concentration occurs) was 69 ± 19 min.
